In a melting point compilation (Tetko et al.):

Conditions: a range is the spread between reports

Row | SMILES | melting point [°C]
1 | O=C1c2ccccc2C(=O)N1CCCBr | 74 to 75
2 | CNc1ccc([N+](=O)[O-])cc1 | 152 to 153
3 | O=[N+]([O-])c1cc(C(F)(F)F)cc([N+](=O)[O-])c1Cl | 56 to 57
4 | CC(C)(C)c1cccc(C(C)(C)C)c1O | 36.5 to 39
5 | CCCCC | -130
6 | C1CNCCN1 | 106 to 110
7 | Cc1c(Br)cc(Br)c(O)c1Br | 82 to 84
8 | c1ccc2c(c1)Oc1ccccc1S2 | 57 to 59.5
9 | COc1cccc(C=O)c1O | 41 to 44.5
10 | Oc1cc(O)cc(O)c1 | 218
11 | CCCCCCC(C)CC (stereo not drawn) | -85 to -84.8
12 | CC[Si](Cl)(Cl)CC | -97 to -96.5
13 | O=[N+]([O-])c1ccccc1-c1ccccc1 | 37 to 37.2
14 | Oc1ccc(Cc2ccc(O)cc2)cc1 | 161 to 162
15 | O=C(O)c1cc(Cl)c(O)c(Cl)c1 | 265 to 268
16 | CCCCCCCCCCCCCCCCCCC | 32 to 33
17 | O=c1c(O)c(-c2ccccc2)oc2cc(O)cc(O)c12 | 214 to 215
18 | CCCCCc1ccc(O)cc1 | 23 to 24
19 | Cc1c(C)c(C)c(CCl)c(C)c1C | 82 to 83
20 | COc1cccc(OC)c1C(C)=O | 69 to 70
21 | CC/C=C/CC | -115 to -113
22 | COc1c(Cl)cc(Cl)cc1Cl | 61 to 61.5
23 | O=C(C[N+](=O)[O-])Nc1ccccc1 | 93 to 94
24 | Cc1ncc([N+](=O)[O-])n1C | 137 to 140
25 | Cn1nnnc1S | 122 to 127

Row | SMILES | melting point [°C]
26 | O=Cc1ccc(C=O)cc1 | 115 to 117
27 | C1=CCCCCCC1 | -16 to -12
28 | CCCCCCCCCCCC(=O)CCCCCCCCCCC | 67 to 70.2
29 | C=CCCCCCCCCCCCC | -13 to -12
30 | CCOC(=O)C(C)C | -88.2 to -88
31 | Fc1ccc(Cl)cc1 | -26.8 to -22
32 | N#Cc1ccc(Cl)cc1 | 92 to 95
33 | OC1CCCC1 | -20 to -16.2
34 | Brc1cc2ccccc2c2ccccc12 | 64 to 64.5
35 | CC#CC | -32.3 to -32
36 | O=[N+]([O-])c1cc(Cl)ccc1Cl | 55 to 56
37 | C=CCCCCC | -120 to -119
38 | C=C(CC(=O)OC)C(=O)OC | 36 to 38
39 | O=C1OC(=O)C2C3C=CC(C3)C12 (stereo not drawn) | 164 to 166
40 | CC(F)(F)F | -111
41 | CC(=O)c1ccc(O)cc1 | 107 to 110
42 | CCCI | -101
43 | Cc1cc2ccccc2cn1 | 63 to 68
44 | Nc1ccc(S(=O)(=O)Nc2ccccn2)cc1 | 190 to 192
45 | Clc1ccccn1 | -46.5 to -46
46 | C=Cc1ccccc1C | -69 to -68.5
47 | O=C(CCl)c1ccccc1 | 54 to 56.5
48 | COC(=O)CCC(=O)OC | 19 to 19.5
49 | NC(=O)c1ccccc1Cl | 142 to 143
50 | Clc1cc(Cl)c(-c2ccccc2)cc1Cl | 76 to 78

Row | SMILES | melting point [°C]
51 | O=[N+]([O-])c1ccc(Cl)cc1Cl | 30.5 to 34
52 | Fc1ccc(-c2ccccc2)cc1 | 74 to 74.2
53 | COc1ccc(C(=O)c2ccc(OC)cc2O)c(O)c1 | 135 to 140
54 | Cc1ccc(N(CC2=NCCN2)c2cccc(O)c2)cc1 | 174 to 175
55 | CN1CC=C(c2ccccc2)CC1 | 38.5 to 40
56 | O/N=C\c1ccccc1 | 35 to 36.5
57 | CC1CC1 | -177
58 | Cc1cccc([N+](=O)[O-])c1N | 95 to 96
59 | NC1CCCCC1 | -18 to -17
60 | CC(C)=CC(C)(C)C | -106
61 | CCCCOC=O | -92 to -91.5
62 | C#CC(C)(C)O | 2.6 to 3
63 | COc1cccc(Cl)c1Cl | 31 to 32
64 | COC(=O)c1cc(Cl)ccc1[N+](=O)[O-] | 48.5 to 49
65 | CC(C(=O)O)c1ccc(N2Cc3ccccc3C2=O)cc1 (stereo not drawn) | 212 to 214
66 | N#Cc1ccccc1[N+](=O)[O-] | 108 to 109
67 | C[Si]1(C)O[Si](C)(C)O[Si](C)(C)O1 | 60 to 65
68 | Clc1cncc(Cl)n1 | 54 to 56.5
69 | CC(C)(C)c1ccc2oc(-c3ccc(-c4nc5cc(C(C)(C)C)ccc5o4)s3)nc2c1 | 199 to 201
70 | O=Cc1ccc[nH]1 | 43 to 46.5
71 | C(=C\c1ccccc1)/c1ccccc1 | 123 to 126
72 | O=C(O)c1cc(Cl)cc(Cl)c1O | 220 to 224
73 | CN(C)c1ccc(N(C)C)cc1 | 50 to 51
74 | Brc1cccc(I)c1 | -9.3 to -9
75 | O=Cc1ccc(Cl)c(Cl)c1 | 43 to 44

Row | SMILES | melting point [°C]
76 | CC(C)CNCC(C)C | -77 to -73.5
77 | O=[N+]([O-])c1ccccc1 | 5 to 6
78 | Oc1c(Cl)ccc(Cl)c1Cl | 56 to 58
79 | C1CO1 | -112 to -111
80 | O=C1CCCCCCCCC1 | 24 to 28
81 | CCN(CC)c1ccc(C=O)cc1 | 40 to 41
82 | COc1cc(O)ccc1O | 89 to 90
83 | CNC(C)=O | 27 to 28
84 | CCCCCCCCl | -70 to -69.5
85 | CCCCCCCC(=O)O | 15.8 to 17
86 | c1ccc2n[nH]nc2c1 | 97
87 | O=[N+]([O-])C(Br)(CO)CO | 127 to 132
88 | Cc1ncc[nH]1 | 143 to 144
89 | OC1CCCCC1 | 21 to 25.9
90 | CCC(C)(C)CC | -135 to -134
91 | CC(C)CCC(C)(C)C | -106
92 | CCOc1ccc(CC(=O)O)cc1 | 88.5 to 89
93 | C1CC[C@H]2CCCC[C@H]2C1 | -43 to -42.9
94 | NCc1cccnc1 | -21.1 to -21
95 | OCC1CCCNC1 (stereo not drawn) | 60 to 61
96 | FC(F)(F)CC(F)(F)F | -98 to -94.2
97 | Cc1cccc(N)c1C | 2 to 3
98 | OCc1ccncc1 | 53 to 54
99 | Cc1c(Br)cc(Br)cc1Br | 69 to 70
100 | O=C(O)c1ccc(Cl)c([N+](=O)[O-])c1 | 182 to 183

Row | SMILES | melting point [°C]
101 | COC(=O)c1cc(Cl)ccc1N | 67 to 69
102 | C=CC(=O)NC(C)(C)CC(C)=O | 55 to 57.5
103 | CCOP(=O)(OCC)OCC | -56.4 to -56
104 | CCCc1ccccc1C | -60.3 to -60
105 | O=C(O)c1ccc(O)c(Cl)c1 | 169 to 171
106 | CCCCCCCCCCCCCCCCCCCCCCCCCCCC | 62 to 64.5
107 | CCN(CC)C(=S)SSC(=S)N(CC)CC | 70 to 71.5
108 | CC(C)CC(=O)O | -33 to -29.3
109 | CC(=O)c1ccc2ccccc2c1O | 99 to 101
110 | Cc1cccc2c(C)cccc12 | 80 to 82
111 | CCOC=C(C#N)C#N | 65 to 66
112 | O=C1c2ccccc2C(=O)c2cc(Cl)ccc21 | 209 to 211
113 | CC(=O)C(C)=O | -3 to -1.2
114 | C=CCC(C)CC (stereo not drawn) | -142 to -141
115 | CCI | -111 to -108
116 | C=CC(C)CC (stereo not drawn) | -154 to -153
117 | OCC(F)F | -28.2 to -28
118 | N#CCc1ccccc1C(F)(F)F | 30 to 33
119 | CCOC(=O)C(=O)OCC | -41 to -40
120 | CCCCC(=O)O | -34 to -33.7
121 | O=C(NCc1ccccc1)c1ccccc1 | 105 to 106
122 | O=[N+]([O-])c1ccc(O)c(F)c1 | 119 to 121
123 | Cc1ccc(Cc2ccccc2)cc1 | 4.58 to 5
124 | Cc1ccc2cccc(O)c2n1 | 72 to 73.8
125 | CCOC(=O)C(C)(C)C | -90 to -89.5

Row | SMILES | melting point [°C]
126 | CC1(C)C(=O)NC(=O)N1CO | 100 to 105
127 | Oc1ccc2c(c1)[nH]c1ccccc12 | 272
128 | OC1CCCCCCCCCCC1 | 76 to 78
129 | COc1cccc(C#N)c1OC | 44.5 to 46
130 | N#Cc1cccc2ccccc12 | 36 to 37.5
131 | OCCCl | -67.5 to -63
132 | COC(=O)c1ccc(Br)cc1 | 79 to 81
133 | C=C(Br)CC | -133
134 | CC1CC2C3CCC4=CC(=O)C=CC4(C)C3(F)C(O)CC2(C)C1(O)C(=O)CO (stereo not drawn) | 262 to 263
135 | C/C=C/c1ccccc1 | -29.3 to -27.1
136 | OCc1c[nH]c2ccccc12 | 97.5 to 98
137 | O=C(Cl)c1ccc(F)cc1 | 9 to 10
138 | N#CCc1ccc(N)cc1 | 44 to 46
139 | CC(=O)NN | 64 to 67
140 | O=C(O)CC[N+](=O)[O-] | 62 to 64
141 | CCC(C)=NO | -30 to -29.5
142 | CCCCCCCCC(=O)Cl | -61 to -60.5
143 | CC(C)(C)C(C)(C)C | 101
144 | COP(N)(=O)SC (stereo not drawn) | 45 to 46
145 | O=Cc1ccc([N+](=O)[O-])cc1 | 105 to 108
146 | ClC(c1ccccc1)c1ccccc1 | 16 to 19
147 | CC(=O)c1ccc(Cl)cc1 | 18 to 20
148 | c1ccc2c(c1)Cc1cc3ccccc3cc1-2 | 208 to 212
149 | CCCCCCCCCC(=O)Cl | -35 to -34.5
150 | CC(C)(c1ccccc1)c1ccc(O)cc1 | 70 to 75

Row | SMILES | melting point [°C]
151 | CCCCCCCCC(=O)CCCCCCCC | 52 to 53
152 | O=C(O)c1cc(Br)cc(Br)c1O | 226 to 228
153 | C=CCI | -99.3 to -99
154 | CCC(=O)c1ccc(Br)cc1 | 46 to 48
155 | c1ccc2cc3c(ccc4ccccc43)cc2c1 | 158 to 160
156 | CCCCCCCCCCCCCCCC | 18 to 18.1
157 | O=C(O)Cc1cccc(Cl)c1 | 78 to 79
158 | CCC1CCCC1 | -138
159 | Oc1c(I)cc(I)cc1I | 158 to 160
160 | O=C(O)CCBr | 60 to 62.5
161 | O=C(O)C=Cc1ccc(Cl)cc1 | 248 to 249
162 | O=C(O)c1ccc(Cl)c(Cl)c1 | 207 to 208
163 | NC(=O)c1ccccc1O | 140 to 142
164 | CCCCCCCCP(=O)(CCCCCCCC)CCCCCCCC | 52 to 55
165 | O=C(O)Cc1ccc(F)cc1 | 83 to 86
166 | CCCCCCCCCCCCCCCCBr | 17 to 18
167 | Cc1cc(C2(c3ccc(O)c(C)c3)OC(=O)c3ccccc32)ccc1O | 223 to 224
168 | CN | -93.4 to -93
169 | CCCCc1ccccc1 | -88 to -87.9
170 | CCCCCCCCCCCCCCCC(=O)OC(C)C | 12 to 13.5
171 | CCc1nc(N)nc(N)c1-c1ccc(Cl)cc1 | 233 to 234
172 | O=C(O)CCC(=O)O | 185 to 188
173 | COc1ccc(C=Nc2ccccc2)cc1 | 61 to 65
